Where two headings read alike, the source gives them in different places. Values belong to the molecule of their own block, whether it stands above or below them. Bridge positions count the residues as written; N and C are the ends. Peptide text beside a SMILES is read from it.
Tests used:
KLK7 [1] = target: T1, KLK7 (Homo sapiens, UniProt P49862); design: method as in PMID 26393374; conditions: substrate KHLY-pNA; cited from earlier work
T1 construct: made in house; host or cells: Pichia pastoris strain X-33

Trypsin = conditions: substrate Ac-YASR-pNA; cited from earlier work
KLK5 = conditions: substrate Ac-YRSR-pNA; cited from earlier work
KLK7 [2] = target: T1, KLK7; assay: Competitive inhibition assay against KLK7 (KHLY-pNA substrate); format: biochemical; conditions: for Ki: KLK7, substrate KHLY-pNA, Morrison equation
Source text: KLK7 was produced as a zymogen in the yeast Pichia pastoris strain X-33 previously developed and optimised by Dr Maria Brattsand [29]. Expressed proteins were purified using cation exchange chromatography on UnoSphere S (Biorad) and activated by treatment with enterokinase (10 units per milligram purified zymogen; Thermo Fisher Scientific) before a final polishing step to remove enterokinase, again using cation exchange chromatography. The active site concentration of purified KLK7 was determined using the serpin α1- proteinase inhibitor (A1PI) which binds to KLK7 with 1:1 stoichiometry. Briefly, a fixed amount of KLK7 was pre-incubated with a range of inhibitor concentrations at room temperature for 20 min before adding a constant concentration of substrate KHLY-pNA. The residual KLK7 activities were measured as the increase of absorbance at 405 nm for 10 min (ΔOD405/min) and plotted against respective inhibitor concentrations. The active site concentration was determined by linear regression to find the concentration of inhibitor required for complete KLK7 inhibition (ΔOD405/min drops to zero), which is equal to the concentration of KLK7 active site.
Inhibitory property of SFTI inhibitors was assessed by determining the inhibition constant (Ki) in competitive inhibition assays against a range of proteases as described before. Serial dilutions of the inhibitor were pre-incubated with a fix concentration of protease in assay buffer (0.1 M Tris pH 8.0, 0.1 M NaCl and 0.05% Triton X-100) at room temperature for 10 min. Assays were initiated by addition of respective peptide-pNA substrates. Absorbance changes at 405 nm were monitored using a micro plate spectrophotometer (Bio-rad Benchmark Plus) over 5 min. Inhibition constants were calculated in GraphPad Prism 5.01 (La Jolla California, USA) by non-linear regression using the Morrison equation for tight binding inhibitors.

KLK14 = conditions: substrate Ac-YANR-pNA; cited from earlier work
KLK7 [3] = target: T1, KLK7; conditions: cited from earlier work

T1 sequence (P49862 30-253): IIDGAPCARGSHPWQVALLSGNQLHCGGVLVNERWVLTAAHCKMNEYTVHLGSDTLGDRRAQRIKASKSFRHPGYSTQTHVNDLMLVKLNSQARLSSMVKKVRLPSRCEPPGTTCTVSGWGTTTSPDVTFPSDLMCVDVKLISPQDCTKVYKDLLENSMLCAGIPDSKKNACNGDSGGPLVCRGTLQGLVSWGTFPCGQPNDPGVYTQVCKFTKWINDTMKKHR

Molecule: CC[C@H](C)[C@@H]1NC(=O)[C@@H]2CCCN2C(=O)[C@@H]2CCCN2C(=O)[C@H]([C@@H](C)CC)NC(=O)[C@H](CO)NC(=O)[C@H](CCCCN)NC(=O)[C@H]([C@@H](C)O)NC(=O)[C@@H]2CSSC[C@H](NC1=O)C(=O)N[C@@H](Cc1ccccc1)C(=O)N1CCC[C@H]1C(=O)N[C@@H](CC(=O)O)C(=O)NCC(=O)N[C@@H](CCCNC(=N)N)C(=O)N2 [SFTI-1, Sunflower trypsin inhibitor-1, reference compound]
Ki (KLK7 [2]): 4800 ± 200 nM

B1: recombinant LEKTI fragment comprising domains 8–11: recombinant LEKTI fragment comprising domains 8–11 (protein)
chain: EAAKEICSEFRDQVRNGTLICTREHNPVRGPDGKMHGNKCAMCASVFKLEEEEKKNDKEEKGKVEAEKVKREAVQELCSEYRHYVRNGRLPCTRENDPIEGLDGKIHGNTCSMCEAFFQQEAKEKERAEPRAKVKREAEKETCDEFRRLLQNGKLFCTRENDPVRGPDGKTHGNKCAMCKAVFQKENEERKRKEEEDQRNAAGHGSSGGGGGNTQDECAEYREQMKNGRLSCTRESDPVRDADGKSYNNQCTMCKAKLEREAERKNEY
modifications: intradomain disulfides; check residue is from a known polymorphic site (R711Q), not from the pape
Ki (KLK7 [3]): 34.8 nM

The next lines start with results.

fold increased inhibitory potency against KLK7 compared to SFTI-1 (KLK7 [2]; ratio of Ki values, relative to SFTI-1): 286 fold | fold increase in KLK7 inhibitory potency compared to SFTI-RCTR (KLK7 [2]; ratio of Ki values, relative to SFTI-RCTR): 13 fold
Molecule: SFTI-TCTR: SFTI variant GTCTRSIPPICNPN with four mutations R2T (P4), K5R (P1), F12N, D14N in the cyclic backbone (head-to-tail cyclic backbone)
Ki (KLK7 [1]): 17 ± 0.4 nM | Ki (Trypsin): 0.7 ± 0.07 nM | Ki (KLK5): 2 ± 0.1 nM | Ki (KLK14): 0.4 ± 0.02 nM

Ki (KLK7 [2]): 220 ± 6 nM
Molecule: CC[C@H](C)[C@@H]1NC(=O)[C@@H]2CCCN2C(=O)[C@@H]2CCCN2C(=O)[C@H]([C@@H](C)CC)NC(=O)[C@H](CO)NC(=O)[C@H](CCCNC(=N)N)NC(=O)[C@H]([C@@H](C)O)NC(=O)[C@@H]2CSSC[C@H](NC1=O)C(=O)N[C@@H](Cc1ccccc1)C(=O)N1CCC[C@H]1C(=O)N[C@@H](CC(=O)O)C(=O)NCC(=O)N[C@@H](CCCNC(=N)N)C(=O)N2 [SFTI-RCTR] (cyclo(CFPDGRCTRSIPPI); disulfide 1-7)
